Laboratory results published in patent US10670605B2, “Cysteine reactive probes and uses thereof” (The Scripps Research Institute, priority 2015, dated 2020).

Key:
Experiment in all cases: Competitive isoTOP-ABPP in situ (fragment-treated cells)
Assay type in all cases: cell-based
[1] = biological target: T1, cysteines in MDA-MB-231 and Ramos cells (Homo sapiens, UniProt P24752)
T1 sequence (P24752 34-427): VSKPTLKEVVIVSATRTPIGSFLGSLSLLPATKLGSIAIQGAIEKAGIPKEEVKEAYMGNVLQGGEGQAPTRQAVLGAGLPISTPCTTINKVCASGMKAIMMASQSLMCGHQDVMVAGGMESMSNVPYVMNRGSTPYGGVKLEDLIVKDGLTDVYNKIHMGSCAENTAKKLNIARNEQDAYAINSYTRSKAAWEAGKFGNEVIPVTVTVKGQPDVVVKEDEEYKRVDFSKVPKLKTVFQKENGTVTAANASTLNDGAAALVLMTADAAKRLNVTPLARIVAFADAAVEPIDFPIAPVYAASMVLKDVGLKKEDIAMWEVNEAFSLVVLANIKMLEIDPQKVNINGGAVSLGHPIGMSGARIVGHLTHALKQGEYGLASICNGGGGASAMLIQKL

[2] = biological target: T2, cysteines in MDA-MB-231 and Ramos cells (Homo sapiens, UniProt P57764); settings: for isoTOP-ABPP ratio P57764_C268: 200 μM, insitu
T2 sequence (P57764 1-484): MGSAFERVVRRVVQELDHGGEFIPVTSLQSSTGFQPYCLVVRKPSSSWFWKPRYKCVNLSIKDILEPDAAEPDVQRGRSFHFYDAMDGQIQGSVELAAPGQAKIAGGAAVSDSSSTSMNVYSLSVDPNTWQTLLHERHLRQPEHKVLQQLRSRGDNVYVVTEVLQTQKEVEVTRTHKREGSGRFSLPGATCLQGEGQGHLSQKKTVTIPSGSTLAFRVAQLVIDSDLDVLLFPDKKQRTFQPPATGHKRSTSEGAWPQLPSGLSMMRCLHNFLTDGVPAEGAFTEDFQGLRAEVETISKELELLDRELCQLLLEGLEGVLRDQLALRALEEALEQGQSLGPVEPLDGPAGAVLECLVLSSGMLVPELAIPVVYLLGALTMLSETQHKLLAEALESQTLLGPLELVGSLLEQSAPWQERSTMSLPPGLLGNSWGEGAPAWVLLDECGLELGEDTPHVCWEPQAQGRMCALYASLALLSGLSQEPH

[3] = biological target: T3, cysteines in MDA-MB-231 and Ramos cells (Homo sapiens, UniProt Q15084); settings: for isoTOP-ABPP ratio Q15084_C55 / isoTOP-ABPP ratio, Q15084_C190: 200 μM, insitu, 231
T3 sequence (Q15084 20-440): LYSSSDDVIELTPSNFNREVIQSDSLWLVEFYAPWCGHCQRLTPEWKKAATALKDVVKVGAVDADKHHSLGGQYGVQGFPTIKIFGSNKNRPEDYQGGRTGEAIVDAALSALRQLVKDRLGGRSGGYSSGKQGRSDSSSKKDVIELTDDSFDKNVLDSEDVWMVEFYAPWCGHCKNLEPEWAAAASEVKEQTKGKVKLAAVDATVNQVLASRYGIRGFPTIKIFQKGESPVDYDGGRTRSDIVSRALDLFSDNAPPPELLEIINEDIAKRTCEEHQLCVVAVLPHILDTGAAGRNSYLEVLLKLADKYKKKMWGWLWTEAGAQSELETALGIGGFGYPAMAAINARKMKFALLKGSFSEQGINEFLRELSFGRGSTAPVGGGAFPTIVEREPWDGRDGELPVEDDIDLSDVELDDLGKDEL

[4] = biological target: T4, cysteines in MDA-MB-231 and Ramos cells (Homo sapiens, UniProt Q9UMS0); settings: for isoTOP-ABPP ratio Q9UMS0_C213: 200 μM, insitu, 231
T4 sequence (Q9UMS0 10-254): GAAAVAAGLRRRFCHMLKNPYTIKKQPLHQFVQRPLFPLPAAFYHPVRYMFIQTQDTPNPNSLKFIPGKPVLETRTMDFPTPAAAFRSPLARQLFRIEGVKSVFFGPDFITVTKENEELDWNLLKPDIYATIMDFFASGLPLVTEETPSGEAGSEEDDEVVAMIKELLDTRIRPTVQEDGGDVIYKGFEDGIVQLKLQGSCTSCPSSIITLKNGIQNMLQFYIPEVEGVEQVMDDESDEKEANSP

[5] = biological target: T5, cysteines in MDA-MB-231 and Ramos cells (Homo sapiens, UniProt P22307)
T5 sequence (P22307 1-547): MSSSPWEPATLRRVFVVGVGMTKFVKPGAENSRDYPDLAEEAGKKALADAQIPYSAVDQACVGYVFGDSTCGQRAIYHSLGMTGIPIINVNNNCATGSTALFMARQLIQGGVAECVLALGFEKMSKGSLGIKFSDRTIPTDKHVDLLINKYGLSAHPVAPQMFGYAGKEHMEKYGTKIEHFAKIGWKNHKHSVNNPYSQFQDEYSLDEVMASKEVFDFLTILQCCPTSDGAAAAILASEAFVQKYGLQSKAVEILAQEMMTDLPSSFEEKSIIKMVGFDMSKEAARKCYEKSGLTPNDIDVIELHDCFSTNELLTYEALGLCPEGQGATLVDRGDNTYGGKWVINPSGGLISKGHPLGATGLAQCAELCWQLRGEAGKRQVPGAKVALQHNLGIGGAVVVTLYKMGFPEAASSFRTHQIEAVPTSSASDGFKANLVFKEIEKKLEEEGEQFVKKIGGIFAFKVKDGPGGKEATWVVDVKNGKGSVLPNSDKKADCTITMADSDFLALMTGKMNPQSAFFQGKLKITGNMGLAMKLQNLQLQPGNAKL

[6] = biological target: T6, cysteines in MDA-MB-231 and Ramos cells (Homo sapiens, UniProt Q13162); settings: for isoTOP-ABPP ratio Q13162_C51: 200 μM, insitu, 231
T6 sequence (Q13162 38-271): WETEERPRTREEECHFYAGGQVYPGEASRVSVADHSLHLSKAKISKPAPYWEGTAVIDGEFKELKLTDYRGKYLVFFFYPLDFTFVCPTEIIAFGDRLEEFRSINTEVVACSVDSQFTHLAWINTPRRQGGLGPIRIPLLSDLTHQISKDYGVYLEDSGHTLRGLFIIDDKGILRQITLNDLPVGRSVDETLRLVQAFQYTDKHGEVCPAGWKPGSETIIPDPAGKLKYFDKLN

[7] = biological target: T7, cysteines in MDA-MB-231 and Ramos cells (Homo sapiens, UniProt Q9BRA2); settings: for isoTOP-ABPP ratio Q9BRA2_C43: 200 μM, insitu, 231
T7 sequence (Q9BRA2 1-123): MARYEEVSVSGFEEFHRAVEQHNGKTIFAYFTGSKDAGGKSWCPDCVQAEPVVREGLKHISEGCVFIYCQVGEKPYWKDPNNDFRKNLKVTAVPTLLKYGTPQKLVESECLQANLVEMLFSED

isoTOP-ABPP ratio P24752_C119 ([1]; 200 μM, insitu, 231)	isoTOP-ABPP ratio P24752_C413 ([1]; 200 μM, insitu, 231)	isoTOP-ABPP ratio P57764_C268 [2]; 231	isoTOP-ABPP ratio Q15084_C55 [3]	isoTOP-ABPP ratio, Q15084_C190 [3]	isoTOP-ABPP ratio Q9UMS0_C213 [4]	isoTOP-ABPP ratio P22307_C71 ([5]; 200 μM, insitu, 231)	isoTOP-ABPP ratio Q13162_C51 [6]	isoTOP-ABPP ratio Q9BRA2_C43 [7]	Compound	also measured
1.6	1.9	0.6	1.2	1.0	1.3	20.0	0.9	20.0	CC(C)CCOCCNC(=O)CCl [compound 27]	–
4.5	7.8	–	3.1	3.7	20.0	8.3	2.0	20.0	O=C(CCl)N1CCN(S(=O)(=O)c2ccccc2F)CC1 [compound 10]	isoTOP-ABPP ratio, P24752_C126 ([1]; 200 μM, insitu, 231): 5.9; isoTOP-ABPP ratio, P24752_C196 ([1]; 200 μM, insitu, 231): 5.1; isoTOP-ABPP ratio P24752_C119 ([1]; 200 μM, insitu, ramos): 1.5; isoTOP-ABPP ratio P24752_C413 ([1]; 200 μM, insitu, ramos): 2.2; isoTOP-ABPP ratio, P24752_C196 ([1]; 200 μM, insitu, ramos): 2.3; isoTOP-ABPP ratio P57764_C268 ([2]; ramos): 2.2
12.4	20.0	20.0	2.0	2.8	7.1	16.8	2.3	8.0	CC1CCc2ccccc2N1C(=O)CCl (stereo not shown) [compound 45]	isoTOP-ABPP ratio P22307_C94 ([5]; 200 μM, insitu, 231): 20.0
–	–	–	–	–	–	–	–	–	COc1ccc(C2CC(c3cccs3)=NN2C(=O)CCl)cc1 (stereo not shown) [compound 4]	isoTOP-ABPP reactivity P24752_C119 ACAT1 ([1]; 100 μM in situ 231): 3.0; isoTOP-ABPP reactivity P24752_C126 ACAT1 ([1]; 100 μM in situ 231): 2.8; isoTOP-ABPP reactivity P24752_C196 ACAT1 ([1]; 100 μM in situ 231): 3.5; isoTOP-ABPP reactivity P24752_C413 ACAT1 ([1]; 100 μM in situ 231): 4.5; isoTOP-ABPP reactivity P57764_C268 GSDMD ([2]; 100 μM in situ 231): 20.0; isoTOP-ABPP reactivity Q15084_C55 PDIA6 ([3]; 100 μM in situ 231): 4.9; isoTOP-ABPP reactivity Q15084_C190 PDIA6 ([3]; 100 μM in situ 231): 20.0; isoTOP-ABPP reactivity Q9UMS0_C213 NFU1 ([4]; 100 μM in situ 231): 4.4; isoTOP-ABPP reactivity P22307_C71 SCP2 ([5]; 100 μM in situ 231): 2.7; isoTOP-ABPP reactivity P22307_C94 SCP2 ([5]; 100 μM in situ 231): 20.0; isoTOP-ABPP reactivity P22307_C307 SCP2 ([5]; 100 μM in situ 231): 20.0; isoTOP-ABPP reactivity Q13162_C51 PRDX4 ([6]; 100 μM in situ 231): 1.2; isoTOP-ABPP reactivity Q9BRA2_C43 TXNDC17 ([7]; 100 μM in situ 231): 3.5
